Measurements: patent US10508120B2, “TYK2 inhibitors and uses thereof” (Nimbus Lakshmi, Inc., priority 2017, dated 2019)

Legend:
[1] = target: human TYK2 (JH2domain-pseudokinase) (Homo sapiens (Human), UniProt P29597); test: TYK2 JH2 Domain Binding Assay (KINOMEscan)
In short: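 The construct was human TYK2 G556–D888 fused to the NFkB DNA-binding domain and expressed in HEK293 cells; unpurified extract was incubated with compound and liganded beads for 1 hour at room temperature.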

JAK2 kinase domain (JH1) = JAK2 kinase domain (JH1) (Homo sapiens (Human), UniProt O60674); test: JAK2 Radioactive Kinase Assay; assay type: biochemical; details: compound at 10 μM; ATP 10 μM; read-out: JAK2 JH1% Inhibition @ 10 μM
In short: (§1)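 Values are single-concentration percent inhibition figures. They were obtained with 10 μM compound in a radioactivity-based kinase assay run separately on each enzyme.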

Tyk2 kinase domain (DH1) = Tyk2 kinase domain (DH1) (Homo sapiens (Human), UniProt P29597); test: Tyk2 Radioactive Kinase Assay; assay type: biochemical; details: compound at 10 μM; ATP 10 μM; read-out: Tyk2 JH1% Inhibition @ 10 μM
In short: as §1

Sequence of JAK2 kinase domain (JH1) (O60674 849-1124): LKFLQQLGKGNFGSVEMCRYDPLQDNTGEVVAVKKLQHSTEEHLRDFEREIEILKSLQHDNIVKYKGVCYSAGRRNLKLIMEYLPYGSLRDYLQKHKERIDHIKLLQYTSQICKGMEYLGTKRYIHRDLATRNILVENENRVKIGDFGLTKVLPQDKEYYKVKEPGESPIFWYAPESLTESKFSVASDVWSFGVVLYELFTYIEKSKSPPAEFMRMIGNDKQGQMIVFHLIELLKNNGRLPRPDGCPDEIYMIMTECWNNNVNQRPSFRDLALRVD
Sequence of human TYK2 (JH2domain-pseudokinase) (P29597 556-888): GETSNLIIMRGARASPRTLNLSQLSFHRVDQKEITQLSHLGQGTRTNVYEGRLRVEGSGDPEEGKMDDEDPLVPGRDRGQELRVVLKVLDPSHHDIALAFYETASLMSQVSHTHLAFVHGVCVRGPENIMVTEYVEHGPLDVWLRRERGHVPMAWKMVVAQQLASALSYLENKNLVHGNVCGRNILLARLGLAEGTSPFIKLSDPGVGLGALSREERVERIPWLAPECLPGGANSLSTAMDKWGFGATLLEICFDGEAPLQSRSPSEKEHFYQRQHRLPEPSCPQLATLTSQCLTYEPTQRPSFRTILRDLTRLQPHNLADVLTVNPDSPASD
Sequence of Tyk2 kinase domain (DH1) (P29597 897-1176): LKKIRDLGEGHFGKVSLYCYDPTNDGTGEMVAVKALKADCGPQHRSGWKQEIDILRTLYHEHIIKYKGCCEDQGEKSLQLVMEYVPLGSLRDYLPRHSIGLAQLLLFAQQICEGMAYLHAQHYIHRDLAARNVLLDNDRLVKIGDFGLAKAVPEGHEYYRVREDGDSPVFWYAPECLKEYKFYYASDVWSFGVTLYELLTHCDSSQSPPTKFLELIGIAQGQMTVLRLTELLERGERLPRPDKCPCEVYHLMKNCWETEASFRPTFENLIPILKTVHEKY

SMILES	Kd [1] [nM]	inhibition at 10 µM (JAK2 kinase domain (JH1)) [%]	inhibition at 10 µM (Tyk2 kinase domain (DH1)) [%]
CNc1cc(Nc2cccn([C@H]3CC[C@@H](N4CCOCC4)CC3)c2=O)nc2c(C(N)=O)cnn12 [I-68]	0.2 to 1	< 50	< 50
CNc1cc(Nc2ccnn(-c3ccc(F)cc3)c2=O)nc2c(C(N)=O)cnn12 [I-69]	0.2 to 1	< 50	< 50
NC(=O)c1cnn2c(N)cc(Nc3ccnn(-c4ccc(F)cc4)c3=O)nc12 [I-70, 7-amino-5-((2-(4-fluorophenyl)-3-oxo-2,3-dihydropyridazin-4-yl)amino) pyrazolo[1,5-a]pyrimidine-3-carboxamide]	1 to 10	< 50	< 50
CNc1cc(Nc2cc(Cl)cnc2OC2CCOC2)nc2c(C(N)=O)cnn12 (stereo not drawn) [I-71]	< 0.2	< 50	< 50
CNc1cc(Nc2cc(C)nn(-c3cnn(C)c3)c2=O)nc2c(C(N)=O)cnn12 [I-73]	1 to 10	< 50	< 50
Cc1cc(Nc2cc(N)n3ncc(C(N)=O)c3n2)c(=O)n(-c2cnn(C)c2)n1 [I-74]	0.2 to 1	< 50	< 50
CNc1cc(Nc2cc(C)cn(-c3ccnn3C)c2=O)nc2c(C(N)=O)cnn12 [I-75]	0.2 to 1	< 50	< 50
NC(=O)c1cnn2c(N)cc(Nc3cccn([C@H]4CC[C@@H](N5CCOCC5)CC4)c3=O)nc12 [I-76]	1 to 10	< 50	< 50
CC(C)Oc1ncccc1Nc1cc(N)n2ncc(C(N)=O)c2n1 [I-77]	0.2 to 1	< 50	< 50
CNc1cc(Nc2cc(Cl)cnc2OC(C)C)nc2c(C(N)=O)cnn12 [I-78]	< 0.2	< 50	< 50
CC(C)Oc1ncc(Cl)cc1Nc1cc(N)n2ncc(C(N)=O)c2n1 [I-79]	0.2 to 1	< 50	< 50
CNc1cc(Nc2cc(Cl)cnc2OC2CCC2)nc2c(C(N)=O)cnn12 [I-80]	0.2 to 1	< 50	< 50
NC(=O)c1cnn2c(N)cc(Nc3cc(Cl)cnc3OC3CCC3)nc12 [I-81]	1 to 10	< 50	< 50
NC(=O)c1cnn2c(N)cc(Nc3cc(Cl)cnc3OC3CCOC3)nc12 (stereo not drawn) [I-82, 7-amino-5-((5-chloro-2-((tetrahydrofuran-3-yl)oxy)pyridin-3-yl)amino) pyrazolo[1,5-a]pyrimidine-3-carboxamide]	1 to 10	< 50	< 50
CNc1cc(Nc2cccnc2OC)nc2c(C(=O)NC3COC3)cnn12 [I-83]	> 10	< 50	< 50
CNc1cc(Nc2cccn(-c3ccn(C4CC4)n3)c2=O)nc2c(C(=O)NC3COC3)cnn12 [I-89, 5-((1-(1-cyclopropyl-1H-pyrazol-3-yl)-2-oxo-1,2-dihydropyridin-3-yl)amino)-7-(methylamino)-N-(oxetan-3-yl)pyrazolo[1,5-a]pyrimidine-3-carboxamide]	> 10	< 50	< 50
CNc1cc(Nc2cccnc2OC(F)(F)F)nc2c(C(=O)NC3CC3)cnn12 [I-90]	0.2 to 1	< 50	< 50
CNc1cc(Nc2cccnc2OC(F)(F)F)nc2c(C(N)=O)cnn12 [I-91]	< 0.2	< 50	< 50
CNc1cc(Nc2cccnc2OC(F)(F)F)nc2c(C(=O)NC3COC3)cnn12 [I-92]	> 10	< 50	< 50
CNc1cc(Nc2cc(Cl)cnc2OC2CCC2)nc2c(C(=O)NC3COC3)cnn12 [I-93, 5-((5-chloro-2-cyclobutoxypyridin-3-yl)amino)-7-(methylamino)-N-(oxetan-3-yl)pyrazolo[1,5-a]pyrimidine-3-carboxamide]	> 10	< 50	< 50
CNc1cc(Nc2cc(Cl)cnc2O[C@H]2C[C@@H](OC)C2)nc2c(C(N)=O)cnn12 [I-96]	0.2 to 1	< 50	< 50
CO[C@H]1C[C@@H](Oc2ncc(Cl)cc2Nc2cc(N)n3ncc(C(N)=O)c3n2)C1 [I-97]	1 to 10	< 50	< 50
CNc1cc(Nc2cccn(-c3ccn(C4CC4)n3)c2=O)nc2c(C(=O)NC3CC3)cnn12 [I-98]	< 0.2	< 50	< 50

SMILES	Kd [1] [nM]	inhibition at 10 µM (JAK2 kinase domain (JH1)) [%]	inhibition at 10 µM (Tyk2 kinase domain (DH1)) [%]
Cc1cc(Nc2cc(N)n3ncc(C(N)=O)c3n2)c(=O)n(-c2ccnn2C)c1 [I-99]	1 to 10	< 50	< 50
NC(=O)c1cnn2c(N)cc(Nc3cccn(C4CCN(CC(F)F)CC4)c3=O)nc12 [I-100]	1 to 10	< 50	< 50
Nc1cc(Nc2cccc(N3CCCC3=O)n2)nc2c(C(=O)NC3COC3)cnn12 [I-101, 7-amino-N-(oxetan-3-yl)-5-((6-(2-oxopyrrolidin-1-yl)pyridin-2-yl)amino)pyrazolo[1,5-a]pyrimidine-3-carboxamide]	> 10	< 50	< 50
NC(=O)c1cnn2c(N)cc(Nc3cccnc3OC(F)(F)F)nc12 [I-102, 7-amino-5-((2-(trifluoromethoxy)pyridin-3-yl)amino)pyrazolo[1,5-a]-pyrimidine-3-carboxamide]	0.2 to 1	> 90	70 to 90
Nc1cc(Nc2cccnc2OC(F)(F)F)nc2c(C(=O)NC3COC3)cnn12 [I-103, 7-amino-N-(oxetan-3-yl)-5-((2-(trifluoromethoxy)pyridin-3-yl)amino)pyrazolo[1,5-a]pyrimidine-3-carboxamide]	> 10	< 50	< 50
CNc1cc(Nc2cccn(-c3cc(C)on3)c2=O)nc2c(C(=O)NC3COC3)cnn12 [I-104]	1 to 10	< 50	< 50
CNc1cc(Nc2cccn(C3CCOC3)c2=O)nc2c(C(N)=O)cnn12 (stereo not drawn) [I-108]	0.2 to 1	< 50	< 50
CNc1cc(Nc2cccn(-c3ccc(F)cc3)c2=O)nc2c(C(=O)NC3COC3)cnn12 [I-109]	> 10	< 50	< 50
CNc1cc(Nc2cc(Cl)cnc2O[C@H]2C[C@H](OC)C2)nc2c(C(N)=O)cnn12 [I-111]	0.2 to 1	< 50	< 50
CNc1cc(Nc2cc(N3CCCC3)nc(C(F)(F)F)c2)nc2c(C(N)=O)cnn12 [I-112]	1 to 10	< 50	< 50
Nc1cc(Nc2cccnc2OC(F)(F)F)nc2c(C(=O)NC3CC3)cnn12 [I-113, 7-amino-N-cyclopropyl-5-((2-(trifluoromethoxy)pyridin-3-yl)amino)pyrazolo[1,5-a]pyrimidine-3-carboxamide]	1 to 10	> 90	> 90
CNc1cc(Nc2cc(C)cn(-c3cnn(C4CC4)c3C)c2=O)nc2c(C(N)=O)cnn12 [I-114]	1 to 10	< 50	< 50
CNc1cc(Nc2cccn(-c3ccc(F)cn3)c2=O)nc2c(C(=O)NC3CC3)cnn12 [I-116]	< 0.2	< 50	< 50
CCOc1ccc(-n2cccc(Nc3cc(NC)n4ncc(C(=O)NC5CC5)c4n3)c2=O)nn1 [I-118]	0.2 to 1	< 50	< 50
CO[C@H]1C[C@H](Oc2ncc(Cl)cc2Nc2cc(N)n3ncc(C(N)=O)c3n2)C1 [I-119]	1 to 10	< 50	< 50
NC(=O)c1cnn2c(N)cc(Nc3cc(N4CCCC4)nc(C(F)(F)F)c3)nc12 [I-120]	1 to 10	< 50	< 50
CNc1cc(Nc2cccn(-c3ccnc(C)n3)c2=O)nc2c(C(=O)NC3CC3)cnn12 [I-125]	< 0.2	< 50	< 50
CNc1cc(Nc2cccn(-c3ccc(C(=O)N4CCCC4)cn3)c2=O)nc2c(C(=O)N[C@H]3C[C@H]3F)cnn12 [I-128]	< 0.2	< 50	< 50
CNc1cc(Nc2cccn(-c3ccc(C(=O)N4CCCC4)cn3)c2=O)nc2c(C(=O)NC3CC3)cnn12 [I-129]	< 0.2	< 50	< 50
CNc1cc(Nc2cccn(-c3cccc(C)n3)c2=O)nc2c(C(=O)NC3CCC3)cnn12 [I-130, N-cyclobutyl-5-((6′-methyl-2-oxo-2H-[1,2′-bipyridin]-3-yl)amino)-7-(methylamino)pyrazolo[1,5-a]pyrimidine-3-carboxamide]	< 0.2	< 50	< 50
CNc1cc(Nc2ccnn(-c3ccc(F)cc3)c2=O)nc2c(C(=O)N[C@H]3C[C@H]3F)cnn12 [I-134]	0.2 to 1	< 50	< 50
CNc1cc(Nc2cccn(-c3ccn(C)n3)c2=O)nc2c(C(=O)N[C@H]3C[C@H]3F)cnn12 [I-140]	< 0.2	< 50	< 50
